Entries after “also recorded” stand apart in the source; their conditions may differ.
Columns and labels:
LacCer synthase = LacCer synthase activity in tissues of treated mice; assay type: in vivo
Method: (§1) Female athymic nude mice were injected subcutaneously with […] of Matrigel mixture, containing VEGF (4 μg/ml) and b-FGF (4 μg/ml). Two days later, D-PDMP (10 mg/kg) suspended in 5% Tween-80/0.85% NaCl and was injected intraperitoneally daily for ten days. Mice, injected with vehicle alone, served as control. Passaniti et al., 67 LAB. INVEST. 519-28 (1992). Next, Matrigel plugs were removed, fixed in 10% formalin/PBS, embedded in paraffin and sectioned. Sections were stained with trichrome-Masson stain and photographed. Tissues were also flash-frozen and the activity of LacCer synthase was measured.
The activity of LacCer synthase was measured using ^14C-UDP-Gal as donor and GlcCer as substrate as described previously. See Chatterjee, S., 311 METHODS ENZYMOL. 73-81 (2000).

HUVEC [1] = assay: Apoptosis in HUVEC (DAPI staining, cytochrome c release); assay type: cell-based, human; conditions: basal medium with 2% fetal bovine serum, data not shown
HUVEC [2] = assay: In vitro angiogenesis/tube formation assay in HUVEC; assay type: cell-based, human; conditions: for Effect on VEGF-induced tube formation: pre-treatment with inhibitor; for Bypass of D-PDMP inhibition of VEGF-induced tube formation: co-incubated with VEGF after D-PDMP pre-treatment; for Induction of tube formation: VEGF 10 ng/ml
Method: HUVECs were grown on 24-well culture plates and then exposed to various agonists/antagonists. After stipulated time points, cells were trypsinized, washed in sterile PBS twice and then reconstituted in EGM™ containing 2% FBS. In vitro angiogenesis assay was performed using a commercially available kit from Chemicon International. In brief, 50 μl of ECMatrix™ were placed on 96-well plates and allowed to polymerize at 37° C. for 2 hr. […] Tubes formed were documented using phase contrast microscope (NIKON) at 10× magnification. Images were acquired using CCD camera connected to computer with online image acquiring software AxioVision software (ZEISS). For quantification of tube lengths, images were exported to NIH Image J Software (http://rsb.info.hih.gov/ij/download.html). Results are shown as the mean tube length±SD (in um) for three photographic fields per experiment/well for at least three experiments per condition.

nude mice = assay: In vivo angiogenesis, Matrigel plug assay in nude mice; conditions: Matrigel plug with VEGF/bFGF 4 μg/ml, D-PDMP 10 mg/kg IP daily for 10 days
Method: In vivo angiogenesis was measured by Matrigel plug assay in nude mice. Matrigel mixed with VEGF and bFGF (4 μg/ml each) with or without D-PDMP was injected subcutaneously into the abdomen of nude mice. Plugs were retrieved after 10 days with daily dose of D-PDMP (10 mg/kg Intraperitoneal). […] Approximately 10 fields were taken for each plug, and five plugs from each treated or control group were analyzed by Image Pro software. Results are expressed as percent micro vessel area means±SEM. *P<0.001 versus untreated controls (n=6).
as §1

renal cancer = assay: Mice model of renal cancer; assay type: in vivo
HAEC = assay: In vitro angiogenesis/tube formation assay in HAEC; assay type: cell-based, human
Method: HUVECs were grown on 24-well culture plates and then exposed to various agonists/antagonists. After stipulated time points, cells were trypsinized, washed in sterile PBS twice and then reconstituted in EGM™ containing 2% FBS. In vitro angiogenesis assay was performed using a commercially available kit from Chemicon International. In brief, 50 μl of ECMatrix™ were placed on 96-well plates and allowed to polymerize at 37° C. for 2 hr. Then, HUVEC/HAEC (5×10^3) were suspended in 200 μl of EGM containing 2% FBS and pretreated with inhibitors±VEGF/bFGF/LacCer/S1P for an hr at 37° C., then the cells were added on top of the polymerized ECMatrix™ and incubated at 37° C. in 5% CO2 atmosphere for 8-12 hrs. Tubes formed were documented using phase contrast microscope (NIKON) at 10× magnification. Images were acquired using CCD camera connected to computer with online image acquiring software AxioVision software (ZEISS). For quantification of tube lengths, images were exported to NIH Image J Software (http://rsb.info.hih.gov/ij/download.html). Results are shown as the mean tube length±SD (in um) for three photographic fields per experiment/well for at least three experiments per condition.

HUVEC [3] = system: HUVEC
U-937 cells = assay: Transendothelial migration (TEM) of U-937 cells across HUVEC; assay type: cell-based, human
Method: (A) Western blot analysis of PECAM-1 expression in HUVECs that were pretreated with either LY294002 (75 μM), L-NAME (100 μM) or PDTC (25 μM) for 90 min, followed by incubation with VEGF (25 ng/ml) for 4 hrs. […] (C) HUVECs were pretreated with either LY294002 (75 μM), L-NAME (100 μM), PDTC (25 μM), PECAM-1 monoclonal antibody (4 μg/ml) or mouse IgG (4 μg/ml) for 90 min, followed by incubation with VEGF (25 ng/ml) for 4 hrs and then U937 (monocyte) TEM assays were performed as described below. *P<0.001 vs. vehicle control; **P<0.001 vs. […] TEM assays were performed as previously described. Wei et al., 320 BIOCHEM. BIOPHYS. RES. COMMUN. 1228-35 (2004). Briefly, HUVECs (3×10^5/ml) were placed on 0.2% gelatin coated upper side of Costar® Transwell® inserts (12 mm diameter, 3.0 μm pore-size) (Corning Incorporated, Acton, Mass.) and allowed to reach confluence. Afterwards, the cells were incubated with 2% FBS plus growth factor free EGM for 6 hrs. Subsequently, 3×10^6/ml U-937 promonocytic cell line was added to the upper chamber of the insert and allowed to migrate for 10-12 hrs. At the end of incubation, the U-937 cells that migrated to the lower chamber were carefully aspirated and washed in PBS twice (1500 rpm, 10 min, 4° C.) and then counted using a Neubauer chamber.

PECAM-1 = assay: Western immunoblot of PECAM-1 expression in HUVEC; assay type: cell-based, human
Method: (A) Western blot analysis of PECAM-1 expression in HUVECs that were pretreated with either LY294002 (75 μM), L-NAME (100 μM) or PDTC (25 μM) for 90 min, followed by incubation with VEGF (25 ng/ml) for 4 hrs. […] (C) HUVECs were pretreated with either LY294002 (75 μM), L-NAME (100 μM), PDTC (25 μM), PECAM-1 monoclonal antibody (4 μg/ml) or mouse IgG (4 μg/ml) for 90 min, followed by incubation with VEGF (25 ng/ml) for 4 hrs and then U937 (monocyte) TEM assays were performed as described below. *P<0.001 vs. vehicle control; **P<0.001 vs. […] Cells treated with agonists/antagonists were washed twice in PBS and lysed with mammalian protein extraction reagent (Pierce Biotechnology) supplemented with protease inhibitor cocktail (Roche Diagnostics GmbH). Protein content was determined using a Bradford dye binding assay kit from Bio-Rad Laboratories, Inc. (Richmond, Calif.) using BSA as standard. Twenty-five μg of cellular protein was resolved by 10% SDS-PAGE and then transferred to nitrocellulose membrane. After blocking (5% non-fat dry milk powder in Tris-buffered saline, pH 8.0 containing 0.05% Tween 20) for 1 hr at room temperature, membranes were incubated with appropriate primary antibodies. […] The x-ray films were then densitometrically scanned using a Molecular Dynamics Image Scanner and analyzed using Image Quant software.

[4] = LY294002 75 μM, PDTC 25 μM for 90 min, then VEGF 25 ng/ml 4 hrs

## CCCCCCCCCC(=O)N[C@H](CN1CCOCC1)[C@H](O)c1ccccc1 [D-PDMP, D-threo-1-Phenyl-2-decanoylamino-3-morpholino-1-propanol]
LacCer synthase; D-PDMP 10 mg/kg IP 10 days, versus agonist treated mice
  Decrease in the activity of LacCer synthase: 39%
LacCer synthase; D-PDMP treated animals, 10 mg/kg IP 10 days
  Activity of LacCer synthase: 0.200±0.015 nmol/mg protein
HUVEC [1]
  Effect on apoptosis, compound alone: did not alter
HUVEC [2]
  Effect on LacCer-induced tube formation/angiogenesis: blunted
  Effect on VEGF-induced tube formation: inhibited; also recorded: blunted
Nude mice; P<0.001
  Effect on VEGF/bFGF-induced angiogenesis in vivo: significantly inhibited; also recorded: mitigated
Nude mice; P<0.001, listed as PDMP
  Effect on VEGF/bFGF-induced angiogenesis in vivo: mitigates
Renal cancer
  Survival: markedly reduce
  Tumor volume: markedly reduce
HAEC; HAEC, D-PDMP 20 μM
  Effect on VEGF-induced tube formation: inhibited
  Effect on bFGF-induced tube formation: inhibited
HAEC; human arterial endothelial cells
  Effect on VEGF/B-FGF-induced angiogenesis: mitigated
HUVEC [3]; D-PDMP 10-20 μM
  Effect on VEGF-stimulated proliferation: reduced this effect significantly
HUVEC [3]; basal medium with 2% fetal bovine serum, data not shown
  Effect on cell proliferation, compound alone: did not alter

## CCCCCCCCCCCCC/C=C/[C@@H](O)[C@H](CO)N(C)C [DMS, dimethyl sphingosine]
HUVEC [2]
  Effect on S1P-induced tube formation: inhibited
  Effect on VEGF-induced tube formation: inhibited; also recorded: abrogated

## S=C(S)N1CCCC1 [PDTC, 1-pyrrolodinecarbodithioicacid]
HUVEC [2]
  Effect on VEGF-induced tube formation: blunted
U-937 cells; [4]
  Effect on VEGF-induced transendothelial migration (TEM) of U-937 cells: blunted
PECAM-1; [4]
  Effect on VEGF-induced PECAM-1 expression: blunted

## CCCCCCCCCCCCC/C=C/[C@@H](O)[C@@H](N)COP(=O)(O)O [S1P, sphingosine-1-phosphate]
HUVEC [2]
  Bypass of DMS inhibition of VEGF-induced tube formation: not
  Bypass of D-PDMP inhibition of VEGF-induced tube formation: not

## Cc1ccc(C(=O)Nc2ccc(S(=O)(=O)O)c3cc(S(=O)(=O)O)cc(S(=O)(=O)O)c23)cc1NC(=O)c1cccc(NC(=O)Nc2cccc(C(=O)Nc3cc(C(=O)Nc4ccc(S(=O)(=O)O)c5cc(S(=O)(=O)O)cc(S(=O)(=O)O)c45)ccc3C)c2)c1 [suramin]
HUVEC [2]
  Effect on LacCer-induced tube formation/angiogenesis: not
  Effect on S1P-induced tube formation: inhibited
  Effect on VEGF-induced tube formation: inhibited
HUVEC [2]; listed as surmain
  Effect on VEGF-induced tube formation: mitigated

## Lactosylceramide [LacCer]
HUVEC [2]
  Bypass of DMS inhibition of VEGF-induced tube formation: bypassed; also recorded: by-passed
  Bypass of suramin inhibition of S1P-induced angiogenesis: by passed
  Bypass of suramin inhibition of VEGF-induced tube formation: bypassed
  Induction of tube formation: induced tube formation
  Bypass of D-PDMP inhibition of VEGF-induced tube formation: bypassed the inhibitory effect
HAEC; HAEC, LacCer 2.5 μM
  Reversal of D-PDMP inhibition of VEGF-induced tube formation: reversed
  Reversal of D-PDMP inhibition of bFGF-induced tube formation: reversed

## VEGF
HUVEC [2]
  Induction of tube formation: marked tube formation; also recorded: induced tube formation; also recorded: induced marked
U-937 cells; VEGF 25 ng/ml 4 hrs
  Induction of transendothelial migration (TEM) of U-937 cells: induced marked
PECAM-1; VEGF 25 ng/ml 4 hrs
  Induction of PECAM-1 expression: induced marked expression
HAEC; HAEC
  Induction of tube formation: induced marked tube formation; also recorded: markedly induced
HUVEC [3]
  Stimulation of proliferation: stimulated proliferation

## bFGF: Human recombinant basic fibroblast growth factor
HAEC; HAEC
  Induction of tube formation: induced marked tube formation

— patent US9134315B2, “Use of the lactosylceramide synthase isoform B1,4GalT-V as a biomarker for cancer” (The Johns Hopkins University, priority 2010, dated 2015)
